# Reference: patent publication US4883815A, “Hydrocinnamic acid derivatives” (Hoffmann-La Roche Inc., priority 1987, dated 1989)
# Experiment: acute toxicity, single oral administration
# Details: mouse, in vivo
# Text: Moreover, the Table contains data for the acute toxicity (LD50 in mg/kg in the case of single oral administration to mice).
# [1] = acute toxicity, single oral administration to mice
Structure (SMILES),LD50 [1] [mg/kg],LD50 (po) [mg/kg]
"CCOC(=O)CC[C@H](NC(=O)CCc1cc(Cl)ccc1C(=O)CCCNC(C)=O)C(=O)OCC [Example 29, diethyl N-[2-(4-acetamidobutyryl)-5-chlorohydrocinnamoyl]-L-glutamate]",> 5000,
"CCOC(=O)CCc1cc(Cl)ccc1C(=O)CCCNC(C)=O [Example 2, ethyl 2-(4-acetamidobutyryl)-5-chloro-hydrocinnamate]",> 5000,
CCCCCCCOC(=O)CCc1cc(Cl)ccc1C(=O)CCCNC(C)=O [H H Cl H H O(CH2)6CH3 CH3 H H Oxo],,> 5000
"CCOC(=O)CNC(=O)CCc1cc(Cl)ccc1C(=O)CCCNC(C)=O [Example 30, ethyl N-[2-(4-acetamidobutyryl)-5-chlorohydrocinnamoyl]-glycinate]",> 5000,
"CCOC(=O)CCc1cc(Cl)ccc1C(=O)CCCNC(=O)CCCNC(C)=O [Example 8, ethyl 2-[4-(4-acetamidobutyramido)butyryl]-5-chlorohydrocinnamate]",> 5000,
"CC(=O)NCCCC(=O)c1ccc(Cl)cc1CCC(=O)OC(C)C [Example 4, isopropyl 2-(4-acetamidobutyryl)-5-chlorohydrocinnamate]",> 4000,
"CC(=O)NCCCC(=O)c1ccc(Cl)cc1CCC(N)=O [Example 19, 2-(4-acetamidobutyryl)-5-chlorohydrocinnamide]",,> 4000
"CCCOC(=O)CCc1cc(Cl)ccc1C(=O)CCCNC(C)=O [Example 3, propyl 2-(4-acetamidobutyryl)-5-chlorohydrocinnamate]",> 5000,
